Series [1] can be described thus: Aqueous solubility in phosphate buffer at pH 6.5 by lyophilisation solubility assay. It is filed as physicochemical.
A short description of series [2]: Metabolic stability in mouse liver microsomes assessed as intrinsic clearance per mg protein. Type of series: ADME, Microsome.
Series [3] is described as follows: Metabolic stability in human liver microsomes assessed as intrinsic clearance per mg protein. It is filed as ADME, Microsome. For orientation: Microsomes from liver hold many membrane-bound enzymes, among them those of drug oxidation.

Converted amounts (≈) assume the structure as drawn. Where only a bound is given, the exact number is not on record here.

By solubility is commonly meant the dissolved amount per volume that the medium holds. Read a low solubility as little dissolved substance. The term microsomal CLint denotes a measure of how fast metabolising enzymes remove a compound, apart from limits set by blood flow. In series [1], `N#Cc1ccc(C(=O)NCC(=O)NC(c2ccccc2)c2ccc(Cl)cc2)cc1` (centres undefined) registered a solubility of 7 µg/mL (≈ 17.3 µM). The microsomal CLint in series [2] was found to be 8.6 µL/min/mg.
The compound `O=C(CNC(=O)c1ccc(F)cc1)NC(c1cccc(F)c1)c1cccc(F)c1` displayed a solubility in series [1] below 1 µg/mL. In series [3], the intrinsic metabolic clearance (microsomal CLint) was 9.7 µL/min/mg.
Consider `O=C(CNC(=O)c1ccc(F)cc1)NC(c1ccccc1)c1cccc(C(F)(F)F)c1` (centres undefined), for which the solubility in series [1] was below 1 µg/mL. In addition, in series [2], the microsomal CLint was determined as 19.3 µL/min/mg.
In series [1], `O=C(CCc1ccccc1)NCC(=O)NC(c1ccccc1)c1ccc(Cl)cc1` (centres undefined) had a solubility below 1 µg/mL. Further, the intrinsic clearance (microsomal CLint) in series [2] was determined as 926 µL/min/mg; in series [3] it was 887 µL/min/mg.

These data come from ChEMBL document CHEMBL1144246, “Design, synthesis and structure-activity relationship of simple bis-amides as potent inhibitors of GlyT1” (Bioorg Med Chem Lett, 2008).
